How the values were obtained:
[1] = tested on: Rice (Nipponbare) calluses transformed with pCAMBIA1302-sGFP; assay: Redifferentiation and rooting test, control rice callus transformed with pCAMBIA1302-sGFP; type: cell-based, Oryza sativa
Protocol: After selective culturing, the callus was transplanted onto a rice redifferentiation medium RE-III (containing 50 ppm hygromycin or 0.25 μM bispyribac sodium), cultured at 27 degree C. under 16L/8D conditions, and led to redifferentiate. The callus was plated after 2 weeks. At additional about 2 to 3 weeks, a redifferentiated, transformed rice (T0) was obtained. Once a differentiated shoot and/or root had appeared, the rice was transplanted onto a hormone-free (HF) medium (containing 50 ppm hygromycin or 0.25 μM bispyribac sodium).
According to Example 5, an HptII::35Spro::Kasalath CYP72A31::Tnos vector plasmid (pCAMBIA1390-KasCYP72A31, a kasCYP72A31 overexpression construct) or, as controls, an HptII::35Spro::sGFP::Tnos vector plasmid (pCAMBIA1302-sGFP, an sGFP overexpression construct) or an OsALS (W548L/S627I)::OsAct-1pro::sGFP::Tnos vector plasmid (pSTARA-sGFP, a BS-resistant construct) was introduced into a rice variety (a cultivar: Nipponbare) by using an Agrobacterium method. According to a schedule designated in FIG. 12A), transformed calluses were selected with 50 ppm hygromycin. […] Of all the calluses, 43 calluses were transplanted onto a redifferentiation medium containing 0.25 μM BS.
Rice (Nipponbare) calluses transformed with a pCAMBIA1390-KasCYP72A31 construct in Example 8 were obtained by 50 ppm hygromycin selection. […]

[2] = tested on: Arabidopsis thaliana K32-1-1, K32-3-1 and K32-5-1; assay: Growth test in BS-containing medium, Arabidopsis transformed with Kasalath-derived CYP72A32; type: in vivo; settings: day 10 from onset of cultivation, compared to NT
From the text: In this Example, Agrobacterium as prepared in Example 4 was used to introduce HptII::35Spro::Kasalath CYP72A31::Tnos vector plasmid (pCAMBIA1390-KasCYP72A31), HptII::35Spro::Kasalath CYP72A32::Tnos vector plasmid (pCAMBIA1390-KasCYP72A32), or HptII::35Spro::Kasalath CYP72A33::Tnos vector plasmid (pCAMBIA1390-KasCYP72A33) into Arabidopsis thaliana (ecotype: Col-0) by using a floral-dip method. The floral-dip method followed a standard method. […] K31-4-2 and K31-6-5 were selected as fixed lines derived from pCAMBIA1390-KasCYP72A31; K32-1-1, K32-3-1, and K32-5-1 were selected as fixed lines derived from pCAMBIA1390-KasCYP72A32; and K33-1-3 and K33-2-4 were selected as fixed lines derived from pCAMBIA1390-KasCYP72A33. Their seeds were seeded in a medium containing each concentration of BS, and cultivated for 10 days. FIGS. 16A and 16B illustrate the results.
Next, 15 seeds for each of non-transformed Arabidopsis thaliana (NT which is denoted by “Col-0” in FIGS. 18A-18C) and transformed plant bodies (K32-1-1 which is denoted by “K32oe-1-1” in FIGS. 18A-18C, K32-3-1 which is denoted by “K32oe-3-1” in FIGS. 18A-18C, and K32-5-1 which is denoted by “K32oe-5-” in FIGS. 18A-18C) were cultivated on a medium containing each concentration of BS. […]

[3] = tested on: Wild-type rice (Nipponbare); assay: Drug sensitivity test on gellan gum medium, wild-type rice; type: in vivo, Oryza sativa; settings: plant height compared with drug-free medium
Protocol: Next, 1.6 g of Hoagland's mix (Sigma-Aldrich Corporation) and 3 g of Gelrite (Wako Pure Chemical Industries, Ltd.) were suspended in 1 L of distilled water. Then, the mixture was dissolved and heated in a microwave. After that, the mixture was cooled to 50 to 60 degree C., and BS was added at a final concentration of 1 μM. This mixture was dispensed into 30-mL tubular bottles at 15 mL to prepare a gellan gum medium. Next, CSSL rice paddies were soaked in 0.5% sodium hypochlorite for about 20 minutes, and were then washed well with water. These paddies were soaked in distilled water, and kept at 27 degree C. for 3 to 5 days for germination. Germinating seeds were softly planted in sprout-side up on the gellan gum medium. These samples, together with a beaker filled with distilled water, were placed in a transparent case, which was then covered with a clear-plastic wrap. These samples were grown at 27 degree C. under fluorescent light illumination (14 hours of a light period and 10 hours of a dark period) for 7 to 9 days.
According to the method of Example 1, a gellan gum medium containing a test drug at a concentration of 0.01, 0.1, 1, or 10 μM was prepared. Rice seeds were sterilized, germinated, seeded in the medium, and cultivated.

[4] = tested on: rice calluses transformed with pSTARA-sGFP; assay: Selection of drug-resistant callus in N6D medium, pSTARA-sGFP; type: cell-based, Oryza sativa; settings: N6D medium containing 0.25 μM BS
Protocol: Rice transformed with pCAMBIA1390-KasCYP72A31 was used to examine whether a Kasalath-derived CYP72A31 gene was able to be used as a selection marker for transformation with BS as a selection reagent. According to Example 5, rice (Nipponbare) was transformed with pCAMBIA1390-KasCYP72A31 or pSTARA-sGFP by using an Agrobacterium method.
Rice (Nipponbare) calluses transformed with pCAMBIA1390-KasCYP72A31 were cultured for 4 weeks in an N6D medium containing 0.1 or 0.25 μM BS or an N6D medium containing 50 ppm hygromycin to select drug-resistant calluses. Also, rice calluses transformed with pSTARA-sGFP were selected in a similar manner in an N6D medium containing 0.25 μM BS.

Compound: COc1cc(OC)nc(Oc2cccc(Oc3nc(OC)cc(OC)n3)c2C(=O)O)n1 [BS, bispyribac sodium]
- Rooting and survival of plant bodies ([1]; hormone-free medium containing 1 μM BS): killed the plant bodies
- Redifferentiation ([1]; redifferentiation medium containing 0.25 μM BS): found not to include those redifferentiated
- BS sensitivity (germinated seeds, emerging of true leaves, fresh weight of above-ground part) [2]: BS sensitivity equivalent to NT
- CK ratio (%) ([3]; drug 0.01 μM): 82%
- CK ratio (%) ([3]; drug 0.1 μM): 64%
- CK ratio (%) ([3]; drug 1 μM): 22%
- CK ratio (%) ([3]; drug 10 μM): 3%
- Selection efficiency (ratio of the resulting transformed calluses/all calluses) [4]: 82%
